According to patent publication US20240360126A1, “PYRAZOLO[3,4-B]PYRIDINE COMPOUNDS FOR THE TREATMENT OF AUTOIMMUNE DISEASE” (Hoffmann-La Roche Inc., priority 2021, published 2024):

biological target: T1, human TLR8 (Homo sapiens, UniProt Q9NR97); assay: HEK293-Blue-hTLR-8 cells assay; assay type: cell-based; conditions: HEK293-Blue-hTLR8 cells, R848 stimulation, 20 hrs; read-out: HEK/hTLR8 IC50
T1 construct: host or cells: HEK293 (HEK-Blue hTLR8)
T1 sequence (Q9NR97 27-1041): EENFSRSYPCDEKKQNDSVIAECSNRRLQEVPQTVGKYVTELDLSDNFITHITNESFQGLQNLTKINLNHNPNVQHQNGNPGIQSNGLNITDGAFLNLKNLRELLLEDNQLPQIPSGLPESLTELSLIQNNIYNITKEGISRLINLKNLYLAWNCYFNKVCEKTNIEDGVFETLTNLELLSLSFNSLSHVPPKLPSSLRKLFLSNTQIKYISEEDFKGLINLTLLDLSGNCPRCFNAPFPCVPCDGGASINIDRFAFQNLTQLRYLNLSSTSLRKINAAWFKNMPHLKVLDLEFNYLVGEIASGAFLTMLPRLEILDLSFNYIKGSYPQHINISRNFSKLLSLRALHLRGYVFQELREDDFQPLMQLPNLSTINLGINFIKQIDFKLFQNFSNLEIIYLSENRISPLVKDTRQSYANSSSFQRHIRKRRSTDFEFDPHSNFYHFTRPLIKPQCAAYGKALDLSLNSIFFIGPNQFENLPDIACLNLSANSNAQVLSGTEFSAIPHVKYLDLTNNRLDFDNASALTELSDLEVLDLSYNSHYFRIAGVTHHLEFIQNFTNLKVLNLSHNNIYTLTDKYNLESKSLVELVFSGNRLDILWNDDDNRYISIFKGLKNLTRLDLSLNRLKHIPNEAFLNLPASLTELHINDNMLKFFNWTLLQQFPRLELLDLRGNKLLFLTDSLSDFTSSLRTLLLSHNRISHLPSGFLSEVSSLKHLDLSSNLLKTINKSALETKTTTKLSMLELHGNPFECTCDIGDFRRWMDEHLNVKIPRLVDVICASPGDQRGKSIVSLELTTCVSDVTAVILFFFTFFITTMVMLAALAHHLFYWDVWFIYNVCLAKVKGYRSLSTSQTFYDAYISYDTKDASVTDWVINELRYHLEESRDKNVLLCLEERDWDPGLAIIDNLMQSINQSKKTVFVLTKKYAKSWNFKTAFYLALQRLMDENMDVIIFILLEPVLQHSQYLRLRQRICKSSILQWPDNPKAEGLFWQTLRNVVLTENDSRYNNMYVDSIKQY
Description: A stable HEK293-Blue-hTLR-8 cell line was purchased from InvivoGen (Cat. #: hkb-htlr8, San Diego, California, USA). These cells were originally designed for studying the stimulation of human TLR8 by monitoring the activation of NF-κB. A SEAP (secreted embryonic alkaline phosphatase) reporter gene was placed under the control of the IFN-β minimal promoter fused to five NF-κB and AP-1-binding sites. The SEAP was induced by activating NF-κB and AP-1 via stimulating HEK-Blue hTLR8 cells with TLR8 ligands. Therefore the reporter expression was declined by TLR8 antagonist under the stimulation of a ligand, such as R848, for incubation of 20 hrs. The cell culture supernatant SEAP reporter activity was determined using QUANTT-BlueTv™ kit (Cat. #: rep-qbl, Invivogen, San Diego, Ca, USA) at a wavelength of 640 nm, a detection medium that turns purple or blue in the presence of alkaline phosphatase.
HEK293-Blue-hTLR8 cells were incubated at a density of 250,000˜450,000 cells/mL in a volume of 170 μL in a 96-well plate in Dulbecco's Modified Eagle's medium (DMEM) containing 4.5 g/L glucose, 50 U/mi penicillin, […] streptomycin, […], 2 mM L-glutamine, 10% (v/v) heat-inactivated fetal bovine serum with addition of 20 μL test compound in a serial dilution in the presence of final DMSO at 1% and 10 μL of 60 μM R848 in above DMEM, perform incubation under 37° C. in a CO2 incubator for 20 hrs. Then 20 μL of the supernatant from each well was incubated with 180 μL Quanti-blue substrate solution at 37° C. for 2 hrs and the absorbance was read at 620-655 nm using a spectrophotometer. The signaling pathway that TLR8 activation leads to downstream NF-κB activation has been widely accepted, and therefore similar reporter assay was modified for evaluating TLR8 antagonist.

IC50 [nM]	SMILES
8	COC[C@H]1CN(c2cnc([C@@H]3CCN(c4cc(C)nc5c4cnn5C)C[C@H]3C)c(C)c2)CCN1 [Example 29, 4-[(3S,4R)-4-[5-[(3R)-3-(methoxymethyl)piperazin-1-yl]-3-methyl-2-pyridyl]-3-methyl-1-piperidyl]-1,6-dimethyl-pyrazolo[3,4-b]pyridine]
9	Cc1cc(N2CC[C@@H](c3ncc(N4CC[C@@H](N)[C@H](F)C4)cc3C)[C@H](C)C2)c2cnn(C)c2n1 [Example 31, (3R,4R)-1-[6-[(3S,4R)-1-(1,6-dimethylpyrazolo[3,4-b]pyridin-4-yl)-3-methyl-4-piperidyl]-5-methyl-3-pyridyl]-3-fluoro-piperidin-4-amine]
15	Cc1cc(N2CC[C@@H](c3ncc(N4CC(C)(N)C4)cc3C)[C@H](C)C2)c2cnn(C)c2n1 [Example 32, 1-[6-[(3S,4R)-1-(1,6-dimethylpyrazolo[3,4-b]pyridin-4-yl)-3-methyl-4-piperidyl]-5-methyl-3-pyridyl]-3-methyl-azetidin-3-amine]
3	Cc1cc(N2CC[C@@H](c3ncc(N4C[C@H]5NCCO[C@@H]5C4)cc3C)[C@H](C)C2)c2cnn(C)c2n1 [Example 33, (4aR,7aR)-6-[6-[(3S,4R)-1-(1,6-dimethylpyrazolo[3,4-b]pyridin-4-yl)-3-methyl-4-piperidyl]-5-methyl-3-pyridyl]-3,4,4a,5,7,7a-hexahydro-2H-pyrrolo[3,4-b][1,4]oxazine]
11	Cc1cc(N2CC[C@@H](c3ccc(N4CCNCC4)cn3)[C@H](C)C2)c2cnn(C)c2n1 [Example 34, 1,6-dimethyl-4-[(3S,4R)-3-methyl-4-(5-piperazin-1-yl-2-pyridyl)-1-piperidyl]pyrazolo[3,4-b]pyridine]
9	Cc1cc(N2CC[C@H](c3ccc(N4CCNCC4)cn3)[C@@H](C)C2)c2cnn(C)c2n1 [Example 35, 1,6-dimethyl-4-[(3R,4S)-3-methyl-4-(5-piperazin-1-yl-2-pyridyl)-1-piperidyl]pyrazolo[3,4-b]pyridine]
21	CO[C@@H]1CN(c2ccc([C@H]3CCN(c4cc(C)nc5c4cnn5C)C[C@@H]3C)nc2)C[C@H]1N [Example 36, (3R,4R)-1-[6-[(3R,4S)-1-(1,6-dimethylpyrazolo[3,4-b]pyridin-4-yl)-3-methyl-4-piperidyl]-3-pyridyl]-4-methoxy-pyrrolidin-3-amine]
13	COC[C@H]1CN(c2ccc([C@H]3CCN(c4cc(C)nc5c4cnn5C)C[C@@H]3C)nc2)CCN1 [Example 37, 4-[(3R,4S)-4-[5-[(3R)-3-(methoxymethyl)piperazin-1-yl]-2-pyridyl]-3-methyl-1-piperidyl]-1,6-dimethyl-pyrazolo[3,4-b]pyridine]
11	Cc1cc(N2CC[C@H](c3ccc(N4CC5(CNCCO5)C4)cn3)[C@@H](C)C2)c2cnn(C)c2n1 [Example 38, 2-[6-[(3R,4S)-1-(1,6-dimethylpyrazolo[3,4-b]pyridin-4-yl)-3-methyl-4-piperidyl]-3-pyridyl]-5-oxa-2,8-diazaspiro[3.5]nonane]
10	CO[C@H]1CN(c2ccc([C@H]3CCN(c4cc(C)nc5c4cnn5C)C[C@@H]3C)nc2)CC[C@@H]1N [Example 39, (3S,4S)-1-[6-[(3R,4S)-1-(1,6-dimethylpyrazolo[3,4-b]pyridin-4-yl)-3-methyl-4-piperidyl]-3-pyridyl]-3-methoxy-piperidin-4-amine]
7	Cc1cc(N2CC[C@H](c3ccc(N4CCOC[C@@H](N)C4)cn3)[C@@H](C)C2)c2cnn(C)c2n1 [Example 40, (6S)-4-[6-[(3R,4S)-1-(1,6-dimethylpyrazolo[3,4-b]pyridin-4-yl)-3-methyl-4-piperidyl]-3-pyridyl]-1,4-oxazepan-6-amine]
10	Cc1cc(N2CC[C@H](c3ccc(N4CC[C@@H](N)[C@H](F)C4)cn3)[C@@H](C)C2)c2cnn(C)c2n1 [Example 41, (3R,4R)-1-[6-[(3R,4S)-1-(1,6-dimethylpyrazolo[3,4-b]pyridin-4-yl)-3-methyl-4-piperidyl]-3-pyridyl]-3-fluoro-piperidin-4-amine]
6	Cc1cc(N2CC[C@H](c3ccc(N4CC(C)(N)C4)cn3)[C@@H](C)C2)c2cnn(C)c2n1 [Example 43, 1-[6-[(3R,4S)-1-(1,6-dimethylpyrazolo[3,4-b]pyridin-4-yl)-3-methyl-4-piperidyl]-3-pyridyl]-3-methyl-azetidin-3-amine]
